The text below walks through data of ChEMBL document CHEMBL1152907, “Synthesis and cytotoxicities of icogenin analogues with disaccharide residues” (Bioorg Med Chem Lett, 2009).

Common to all, as to assay type: functional, cell-based
For test [1], the system named is SW1990. Description: Cytotoxicity against human SW1990 cells after 72 hrs by MTT assay. Particulars: SW1990, 72 h. In general terms: Formazan colour is commonly taken as a measure of viable cells.
The test system of test [2] is A549. Description: Cytotoxicity against human A549 cells after 72 hrs by MTT assay. Conditions: A549, 72 h.
Test [3] concerns HCT-8. Description: Cytotoxicity against human HCT8 cells after 72 hrs by MTT assay. Particulars: HCT-8, 72 h.
The subject of test [4] is PANC-1. Put plainly: Cytotoxicity against human PANC1 cells after 72 hrs by MTT assay. Particulars: PANC-1, 72 h.
Test [5] relates to Capan-2. Description: Cytotoxicity against human Capan2 cells after 72 hrs by MTT assay. Conditions: Capan-2, 72 h.
The test system of test [6] is Bel-7402. Put plainly: Cytotoxicity against human Bel7402 cells after 72 hrs by MTT assay. Particulars: Bel-7402, 72 h.
The subject of test [7] is A2780. Description: Cytotoxicity against human A2780 cells after 72 hrs by MTT assay. Conditions: A2780, 72 h.
Test [8] has as its system MCF7. Put plainly: Cytotoxicity against human MCF7 cells after 72 hrs by MTT assay. Particulars: MCF7, 72 h.
The test system of test [9] is BXPC-3. Description: Cytotoxicity against human BxPC3 cells after 72 hrs by MTT assay. Conditions: BXPC-3, 72 h.
Test [10] relates to HL-60. Description: Cytotoxicity against human HL60 cells after 72 hrs. Conditions: HL-60, 72 h.

The IC50 is the concentration that gives 50% inhibition. Read a low IC50 as greater potency. As for `CO[C@]1(CC[C@@H](C)CO)O[C@H]2C[C@H]3[C@@H]4CC=C5C[C@@H](O[C@H]6O[C@H](CO)[C@@H](O)[C@H](O[C@@H]7O[C@H](CO)[C@@H](O)[C@H](O)[C@H]7O)[C@H]6O[C@@H]6O[C@@H](C)[C@H](O)[C@@H](O)[C@H]6O)CC[C@]5(C)[C@H]4CC[C@]3(C)[C@H]2[C@@H]1C`, the IC50 in test [1] came out at 900 nM; in test [2], 890 nM; in test [3], 1300 nM; in test [4], 820 nM; in test [5], 1100 nM; in test [6], 920 nM. The figures for the IC50 in test [7], in test [8] and in [9] were 7100 nM, 1200 nM and 1000 nM, respectively.
With `CO[C@]1(CC[C@@H](C)CO)O[C@H]2C[C@H]3[C@@H]4CC=C5C[C@@H](O[C@@H]6O[C@H](CO)[C@@H](O)[C@H](O)[C@H]6O[C@@H]6O[C@@H](C)[C@H](O)[C@@H](O)[C@H]6O)CC[C@]5(C)[C@H]4CC[C@]3(C)[C@H]2[C@@H]1C`, the IC50 in [1] came out at 660 nM; in test [2], 1080 nM; in test [3] it was 1020 nM; in [4], 830 nM; in [5], 1070 nM; in [6] it was 900 nM. Also, the IC50 came out at 7200 nM in test [7], 2890 nM in [8] and 1010 nM in test [9].
With `CO[C@]1(CC[C@@H](C)CO)O[C@H]2C[C@H]3[C@@H]4CC=C5C[C@@H](O[C@H]6O[C@H](CO)[C@@H](O)[C@H](O)[C@H]6O[C@@H]6O[C@@H](C)[C@H](O)[C@@H](O)[C@H]6O)CC[C@]5(C)[C@H]4CC[C@]3(C)[C@H]2[C@@H]1C`, the IC50 in [1] was 730 nM; in [2] it was 1480 nM; in test [3], 1260 nM; in test [4], 870 nM; in [5] it was 1360 nM; in test [6], 940 nM. The IC50 stood at 7800 nM in [7], 2650 nM in [8] and 1040 nM in [9].
Take `C[C@@H]1CC[C@@]2(OC1)O[C@H]1C[C@H]3[C@@H]4CC=C5C[C@@H](O[C@H]6O[C@H](CO)[C@@H](O)[C@H](O)[C@H]6O[C@@H]6O[C@@H](C)[C@H](O)[C@@H](O)[C@H]6O)CC[C@]5(C)[C@H]4CC[C@]3(C)[C@H]1[C@@H]2C`: the concentration for half-maximal inhibition (IC50) in test [1], in [2], in [3], in test [4], in [5] and in test [6] was above 10000 nM in each case. For the same molecule, the IC50 in test [7], in [8] and in [9] was above 10000 nM each time.
For the molecule `C[C@@H]1CC[C@@]2(OC1)O[C@H]1C[C@H]3[C@@H]4CC=C5C[C@@H](O[C@@H]6O[C@H](CO)[C@@H](O[C@@H]7O[C@@H](C)[C@H](O)[C@@H](O)[C@H]7O)[C@H](O)[C@H]6O[C@@H]6O[C@@H](C)[C@H](O)[C@@H](O)[C@H]6O)CC[C@]5(C)[C@H]4CC[C@]3(C)[C@H]1[C@@H]2C` [DIOSCIN], the IC50 in test [1] was 500 nM; in test [2], 700 nM; in [3] it was 560 nM; in test [4] it was 810 nM; in test [5], 50 nM; in test [6], 230 nM. Also, the IC50 in test [7] turned out to be 4460 nM; in [8] it was 1030 nM; in test [9], 700 nM.
Regarding `Nc1ccn([C@@H]2O[C@H](CO)[C@@H](O)C2(F)F)c(=O)n1` [GEMCITABINE], the IC50 in test [1] came out at 1200 nM; in [2], 1400 nM; in [3], 1740 nM; in [4] it was 5600 nM; in test [5] it was 1700 nM; in test [6], 840 nM. In addition, the IC50 in test [7] worked out at 310 nM; in [8] it was 3280 nM; in [9], 2900 nM.
Turning to `C[C@@H]1CC[C@@]2(OC1)O[C@H]1C[C@H]3[C@@H]4CC=C5C[C@@H](O[C@@H]6O[C@H](CO)[C@@H](O)[C@H](O[C@@H]7O[C@H](CO)[C@@H](O)[C@H](O)[C@H]7O)[C@H]6O[C@@H]6O[C@@H](C)[C@H](O)[C@@H](O)[C@H]6O)CC[C@]5(C)[C@H]4CC[C@]3(C)[C@H]1[C@@H]2C` [GRACILLIN], the IC50 stood at 1100 nM in test [1]; 960 nM in test [2]; 920 nM in test [3]; 700 nM in test [4]; 1300 nM in test [5]; 1100 nM in test [6]. The figures for the IC50 in test [7], in test [8] and in test [9] were 4300 nM, 17500 nM and 1300 nM, respectively.
With `CO[C@]1(CC[C@@H](C)CO)O[C@H]2C[C@H]3[C@@H]4CC=C5C[C@@H](O[C@@H]6O[C@H](CO)[C@@H](O)[C@H](O[C@@H]7O[C@H](CO)[C@@H](O)[C@H](O)[C@H]7O)[C@H]6O[C@@H]6O[C@@H](C)[C@H](O)[C@@H](O)[C@H]6O)CC[C@]5(C)[C@H]4CC[C@]3(C)[C@H]2[C@@H]1C` [ICOGENIN(BETA)], the IC50 in test [1] was determined as 1000 nM; in [2], 1860 nM; in test [10] it was 2600 nM; in test [3], 930 nM; in test [4] it was 840 nM; in test [5], 1100 nM. The IC50 in test [6] amounted to 860 nM; in [7] it was 920 nM; in test [8], 1070 nM; in test [9], 1100 nM.
For `C[C@@H]1CC[C@@]2(OC1)O[C@H]1C[C@H]3[C@@H]4CC=C5C[C@@H](O[C@@H]6O[C@H](CO)[C@@H](O)[C@H](O[C@@H]7O[C@@H](C)[C@H](O)[C@@H](O)[C@H]7O)[C@H]6O)CC[C@]5(C)[C@H]4CC[C@]3(C)[C@H]1[C@@H]2C` [POLYPHILLIN C], the IC50 in test [1] is 5400 nM; in test [2], 2300 nM; in test [3] it was 4160 nM; in test [4], 11800 nM; in test [5], 2700 nM; in [6], above 10000 nM. The values for the IC50 in [7], in test [8] and in test [9] were above 10000 nM, 3450 nM and above 10000 nM, respectively.
